According to US20150018566A1, “TUBULIN BINDING AGENTS” (priority 2011, published 2015):

How the values were obtained:
HUVECs [1] = test: Immunofluorescence staining of the microtubule; type: cell-based, human; conditions: 1 μM, 30 minutes, α-tubulin staining
Procedure: In order to confirm that test compounds are able to interfere with cells' tubulin cytoskeleton, immunofluorescence staining was performed. The effect of test compounds on the tubulin reorganization was visualised by staining of microtubules using an α-tubulin antibody and the cell nuclei using 4′,6-diamidino-2-phenylindole (DAPI).
The effect of the compounds on the microtubule disruption was examined by staining for α-tubulin. Sterile cover slips were placed in each well of a 6-well plate and 1×10^6 cells/ml (1 ml) HUVECs were seeded and allowed to attach on the cover slips overnight at 37° C. The following day the medium was removed from the wells, replaced by 1 μM of test compounds diluted in medium and incubated for 30 minutes at 37° C. Next, the medium was removed and the cells were fixed in pre-cooled methanol (1 ml) at −20° C. for 30 minutes. Then, the cells were washed twice with 1 ml PBS (5 minutes each time). The primary monoclonal antibody for a-tubulin was diluted in PBS (1:200) and added (1 ml) in each well for 1 h at room temperature (RT). After that, the cells were washed three times with 1 ml PBS and incubated with 1 ml of secondary Alexa Fluor 488 antibody diluted in PBS (1:1000) for 30 minutes at RT in the dark. The cells were washed for a further three times with 1 ml PBS and allowed to air-dry for 10 minutes. The cover slips containing the attached cells were mounted on microscopy slides using ProLong® gold antifade reagent with DAPI (for nuclear staining) and stored at 4° C. until time for analysis. Images were taken using an Olympus FV1000 Point Scanning Confocal Microscope provided by the Department of Biochemistry, TCD. Experiments were performed in duplicate at two independent times. The results were presented as images of the microtubule disruption of endothelial cells.

HUVECs [2] = test: Analysis of endothelial cell morphology; type: cell-based, human; conditions: for effect on endothelial cell morphology: 40 minutes exposure; for reversibility of the morphology effect: 3 h after drug washout
Procedure: Tubulin inhibitors are not only known for their anti-mitotic effect but also for their anti-vascular activity. Treatment with such agents was previously shown to cause vascular shutdown independently of a direct cytotoxic effect on tumour cells. […] The 1 h incubation period (after drug washout) aimed to identify any observable morphological changes of endothelial cells; however the 3 h incubation period served to indicate any signs of reversibility of this effect.
The effect of test compounds on endothelial cells' morphology was examined. 1×10^6 cells/ml HUVECs (1 ml) were seeded into 6-well plates and incubated overnight at 37° C. The next day, the medium was removed and replaced by control solutions (0.1% DMSO in medium) and test compounds diluted in fresh medium. The cells were incubated for 40 minutes at 37° C. Following that, each well was washed with medium to remove detached cells and incubated with fresh medium for a further 1 h or 3 h at 37° C. Next, the medium was removed and 0.5% crystal violet solution was prepared in 20% ethanol and 1 ml was added in each well for 15 minutes at RT. The wells were then washed 3 times with d. water (5 minutes each time). Wells were allowed to air dry and cell morphology was examined under an Olympus CKX41 inverted microscope using a x4 objective. Images were captured with an E-330 SLR camera system 1 h and 3 h after the washout of compounds. Digital images were processed using Cell̂ A software (Mason Technology, Ireland). The experiments were performed in triplicate and the results were presented as images of the morphological changes of endothelial cells after 1 h and 3 h of drug washout.

rat aortic ring cultures [3] = test: Aortic ring assay (anti-vascular model); type: cell-based; conditions: for anti-vascular effect on existing microvessel network: 100 nM
Procedure: The aortic ring assay is an ideal assay for testing the activity of anti-vascular, anti-angiogenic or pro-angiongenic agents. This method was originally developed and modified by Nicosia. The aorta can be excised from mice or rats, cut into ˜1 mm rings and cultured in either basement membrane matrix (matrigel) or collagen gel. Following incubation for several days the rings start to generate outgrowths of branching microvessels which are lined by endothelial cells and supported by pericytes and fibroblasts. The angiogenic response of the aorta is a self-limited process regulated by endogenous growth factors including bFGF [13], VEGF [14], PDGF [15] and angiopoietins.
The rat aorta model is an ex vivo assay which combines advantages of both in vitro and in vivo models. The process of angiogenesis takes place in a defined culture environment which can be easily adapted to different experimental conditions according to the requirement of the study. The cells of the aortic outgrowth have not been modified by repeated passages in culture and thus newly formed microvessels reproduce the characteristics of the vasculature formed during angiogenesis in vivo [17-18]. There is no influx of leukocytes from circulating blood therefore inflammatory complications which affect the interpretation of in vivo assays are minimised. For the purpose of this study, rat aortic ring cultures were used to investigate firstly the anti-vascular and then the anti-angiogenic activity of test compounds.
The successful growth of the aortic rings into a mircovessel network was dependent on several factors including (i) the amount of periaortic fibroadipose tissue left on the ring, (ii) the orientation of the ring, the way which the ring was embedded into the matrigel and (iii) the volume of the matrigel used.
The aortic ring assay is an ex vivo assay which allows the analyst to examine the inhibition/stimulation of angiogenesis as well as the breakdown of existing vasculature. Basement membrane matrix (matrigel) was stored at −20° C. Prior to use, matrigel vial was placed on ice and kept at 4° C. overnight in order to thaw. The matrigel was kept on ice at all times for the duration of the experiment. Aortic rings were obtained by excising the thoracic aorta of 5-10 weeks old Wistar male rats and removing the fibroadipose tissue from the aortic wall. The rings were obtained by cross-sectioning the aorta at ˜1 mm intervals, removed any blood clots by washing several times with EBM-2. Matrigel (80 μl) was placed uniformly in each well of a 12-well plate and the aortic rings were then placed individually in between the matrigel layer with the lumen perpendicular to the surface of the plate. The matrigel solution was allowed to solidify for 30-40 minutes at 37° C. and 1 ml EBM-2 medium (supplemented with 2% FBS and […] streptomycin/penicillin solution) was added to each culture. The aortic rings were kept in a humidified CO2 incubator at 37° C. and fresh medium was replaced three times a week starting from day 3. Once an established microvessel network was developed (day 7-9), test compounds diluted in EBM-2 medium (1 ml) were added to each well and incubated at 37° C. for 24 h. The cultures were monitored for microvessel breakdown over time and images were taken 1 h, 4 h and 24 h after treatment using an Olympus CKX41 inverted microscope. Images were captured with an E-330 SLR camera system and processed using Cell̂ A software. Each compound concentration was tested in duplicate. Results were presented as images showing the microvessel breakdown at each time point.

rat aortic ring cultures [4] = test: Aortic ring assay (anti-angiogenic effect); type: cell-based

| SMILES | microtubule disruption (HUVECs [1]) | effect on endothelial cell morphology (HUVECs [2]; 0.1 μM) | reversibility of the morphology effect (HUVECs [2]) | anti-vascular effect on existing microvessel network (rat aortic ring cultures [3]; 4 h of treatment) | anti-vascular effect on existing microvessel network (rat aortic ring cultures [3]; 24 h of treatment) | anti-angiogenic effect (microvessel formation) (rat aortic ring cultures [4]; 1 nM) | anti-angiogenic effect (microvessel formation) (rat aortic ring cultures [4]; 10 nM) | anti-angiogenic effect (microvessel formation) (rat aortic ring cultures [4]; 100 nM) | anti-angiogenic effect (microvessel formation) (rat aortic ring cultures [4]; 50 nM) | effect on endothelial cell morphology (HUVECs [2]; 1 μM) | anti-vascular effect on established microvessel network (rat aortic ring cultures [3]; 0.1 μM) | anti-vascular effect on established microvessel network (rat aortic ring cultures [3]; 1 μM, 24 h incubation) | anti-vascular effect on established microvessel network (rat aortic ring cultures [3]; 1 nM) | anti-vascular effect on established microvessel network (rat aortic ring cultures [3]; 10 nM) | anti-vascular effect on established microvessel network (rat aortic ring cultures [3]; 50 nM, 4 h of treatment) | anti-vascular effect on established microvessel network (rat aortic ring cultures [3]; 50 nM, 24 h) |
| --- | --- | --- | --- | --- | --- | --- | --- | --- | --- | --- | --- | --- | --- | --- | --- | --- |
| COc1ccc(C2=CC(=O)CCc3c2cc(OC)c(OC)c3OC)cc1O [Compound 1, (Z)-8,9-dihydro-5-(3-hydroxy-4-methoxyphenyl)-1,2,3-trimethoxybenzo[7]annulen-7-one] | Microtubule disruption was observed | modifying the cells' structure | cells regained their shape | evident changes in the microvessels' structure | greater disruption | no inhibitory effect | significantly (p<0.01) inhibited the formation of microvessels | significantly (p<0.01) inhibited the formation of microvessels |  |  |  |  |  |  |  |  |
| COc1ccc(C2=CC(=O)CCc3c2cc(OC)c(OC)c3OC)cc1N [Compound 28, 2-methoxy-5-(2,3,4-trimethoxy-7-oxo-6,7-dihydro-5H-benzo[7]annulen-9-yl)benzenaminium chloride] | Microtubule disruption was observed | modifying the cells' structure | cells regained their shape | evident changes in the microvessels' structure | greater disruption |  | did not demonstrate a decrease in microvessel formation | complete growth inhibition | complete growth inhibition |  |  |  |  |  |  |  |
| COc1ccc(C2=CC(=O)CCc3c2cc(OC)c(OC)c3OC)cc1OC(=O)C(CC(C)C)NC(=O)C(O)C(N)Cc1ccccc1.Cl (stereo not shown) [Compound 44] | induce microtubule disruption | minor effect | reversible effect |  |  |  | slight decrease | significant (p<0.05) reduction |  | cell monolayer was disturbed | did not result in a clear anti-vascular effect | apparent microvessel breakdown |  |  |  |  |
| COc1ccc(C2=CC(=O)COc3c2cc(OC)c(OC)c3OC)cc1OC(=O)C(CC(C)C)NC(=O)C(O)C(N)Cc1ccccc1.Cl (stereo not shown) [Compound 45, 2-methoxy-5-(7,8,9-trimethoxy-3-oxo-2H-1-benzoxepin-5-yl)phenyl 2-(3-amino-2-hydroxy-4-phenylbutanamido)-4-methylpentanoate] | disruption of microtubule organisation | severe effect | did not seem to regain their original shape |  |  |  | insignificantly decreased |  | almost complete inhibition | severe effect |  |  | did not demonstrate any obvious anti-vascular activity | did not demonstrate any obvious anti-vascular activity | sufficient to disrupt the microvessel network | more evident |
